Data published in US12037345B2, “Heterobicyclic compounds for inhibiting the activity of SHP2” (TAIHO PHARMACEUTICAL CO., LTD., priority 2018, dated 2024).

What was measured:
[1] = biological target: SHP2 (Homo sapiens (Human), UniProt Q06124); assay: SHP2 Biochemical Assay (DiFMUP conversion, pIRS1-activated); conditions: Table 19; head prints unit as "-M"
Summary of the method: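 Rates of DiFMU formation were followed 30 min at ex 360/em 450 nm, with 50 μM DiFMUP, 10 pM SHP2 and pIRS1 peptide ([…]) after 30 min compound pre-incubation at pH 7.0 Bis-Tris propane. Four-parameter logistic IC50s in singlicate; repeat runs averaged.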

[2] = test system: pERK (phospho-p44/42 ERK) in HCC827 cells; assay: Cellular pERK Inhibition Assay, Method A (In-Cell Western); type: cell-based; conditions: Homo sapiens, Table 19, head prints unit as "-M", read-out: pERK (IC50) Method A
Summary of the method: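 In-Cell Western: phospho-p44/42 ERK antibody staining of formalin-fixed HCC827 cells after compound exposure (serum-free medium, 0.2% DMSO, 37 °C, indicated time). Readings minus cell-free blanks were normalised to DMSO-treated wells. Relative IC50 came from four-parameter logistic fits of quadruplicates, given as single or mean values.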

Sequence of SHP2 (Q06124 whole entry): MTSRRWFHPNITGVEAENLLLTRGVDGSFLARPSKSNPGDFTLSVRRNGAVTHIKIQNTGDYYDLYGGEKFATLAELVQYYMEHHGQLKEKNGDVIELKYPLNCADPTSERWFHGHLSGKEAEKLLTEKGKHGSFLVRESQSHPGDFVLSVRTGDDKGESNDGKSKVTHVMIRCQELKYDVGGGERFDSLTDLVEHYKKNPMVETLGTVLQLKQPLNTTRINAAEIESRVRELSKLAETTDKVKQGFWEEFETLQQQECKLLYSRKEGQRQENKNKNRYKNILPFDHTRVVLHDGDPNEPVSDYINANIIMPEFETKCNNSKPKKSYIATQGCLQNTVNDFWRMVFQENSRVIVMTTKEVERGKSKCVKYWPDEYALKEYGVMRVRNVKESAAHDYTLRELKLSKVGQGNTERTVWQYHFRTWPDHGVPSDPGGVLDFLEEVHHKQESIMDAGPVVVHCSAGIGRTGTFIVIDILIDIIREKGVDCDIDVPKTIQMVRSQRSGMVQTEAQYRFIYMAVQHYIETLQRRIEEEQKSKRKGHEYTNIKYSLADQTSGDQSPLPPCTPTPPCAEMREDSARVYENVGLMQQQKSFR

Compound	IC50 [1]	IC50 [2]
Cn1c(N2[C@H]3CC[C@@H]2[C@H](N)C3)nc2[nH]cc(-c3ccc4nn(CF)c(Cl)c4c3Cl)c2c1=O [Example 103, 2-((1R,2R,4S)-2-amino-7-azabicyclo[2.2.1]heptan-7-yl)-5-(3,4-dichloro-2-(fluoromethyl)-2H-indazol-5-yl)-3-methyl-3,7-dihydro-4H-pyrrolo[2,3-d]pyrimidin-4-one]	0.002 µM	0.026 µM
CN[C@@H]1C[C@@H]2CC[C@H]1N2c1nc2[nH]cc(-c3ccc4nn(C)c(Cl)c4c3Cl)c2c(=O)n1C [Example 104, 5-(3,4-dichloro-2-methyl-2H-indazol-5-yl)-3-methyl-2-((1R,2R,4S)-2-(methylamino)-7-azabicyclo[2.2.1]heptan-7-yl)-3,7-dihydro-4H-pyrrolo[2,3-d]pyrimidin-4-one]	0.0027 µM	0.084 µM
CN[C@@H]1C[C@@H]2CC[C@H]1N2c1nc2[nH]cc(-c3ccc4ncsc4c3Cl)c2c(=O)n1C [Example 105, 5-(7-chlorobenzo[d]thiazol-6-yl)-3-methyl-2-((1R,2R,4S)-2-(methylamino)-7-azabicyclo[2.2.1]heptan-7-yl)-3,7-dihydro-4H-pyrrolo[2,3-d]pyrimidin-4-one]	0.005 µM	0.16 µM
CN[C@@H]1C[C@@H]2CC[C@H]1N2c1nc2[nH]cc(-c3ccc4nn(C)c(Cl)c4c3F)c2c(=O)n1C [Example 106, 5-(3-chloro-4-fluoro-2-methyl-2H-indazol-5-yl)-3-methyl-2-((1R,2R,4S)-2-(methylamino)-7-azabicyclo[2.2.1]heptan-7-yl)-3,7-dihydro-4H-pyrrolo[2,3-d]pyrimidin-4-one]	0.005 µM	0.1 µM
CN[C@@H]1C[C@@H]2CC[C@H]1N2c1nc2[nH]cc(-c3ccc4nc(C)sc4c3Cl)c2c(=O)n1C [Example 107, 5-(7-chloro-2-methylbenzo[d]thiazol-6-yl)-3-methyl-2-((1R,2R,4S)-2-(methylamino)-7-azabicyclo[2.2.1]heptan-7-yl)-3,7-dihydro-4H-pyrrolo[2,3-d]pyrimidin-4-one]	0.007 µM	0.27 µM
Cn1c(N2C3CCCC2CNC3)nc2[nH]cc(-c3ccc4ncsc4c3Cl)c2c1=O [Example 108, 2-(3,9-diazabicyclo[3.3.1]nonan-9-yl)-5-(7-chlorobenzo[d]thiazol-6-yl)-3-methyl-3,7-dihydro-4H-pyrrolo[2,3-d]pyrimidin-4-one]	0.004 µM	0.09 µM
CCn1nc2ccc(-c3c[nH]c4nc(N5[C@H]6CC[C@@H]5[C@H](N)C6)n(C)c(=O)c34)c(Cl)c2c1C(F)F [Example 109, 2-((1R,2R,4S)-2-amino-7-azabicyclo[2.2.1]heptan-7-yl)-5-(4-chloro-3-(difluoromethyl)-2-ethyl-2H-indazol-5-yl)-3-methyl-3,7-dihydro-4H-pyrrolo[2,3-d]pyrimidin-4-one]	0.0065 µM	0.12 µM
CCn1nc2ccc(-c3c[nH]c4nc(N5[C@H]6CC[C@@H]5[C@H](N)C6)n(C)c(=O)c34)c(Cl)c2c1CO [Example 110, 2-((1R,2R,4S)-2-amino-7-azabicyclo[2.2.1]heptan-7-yl)-5-(4-chloro-2-ethyl-3-(hydroxymethyl)-2H-indazol-5-yl)-3-methyl-3,7-dihydro-4H-pyrrolo[2,3-d]pyrimidin-4-one]	0.014 µM	1.7 µM
CCn1cc2c(Cl)c(-c3n[nH]c4nc(N5C6CCCC5CNC6)n(C)c(=O)c34)ccc2n1 [Example 111, 6-(3,9-diazabicyclo[3.3.1]nonan-9-yl)-3-(4-chloro-2-ethyl-2H-indazol-5-yl)-5-methyl-1,5-dihydro-4H-pyrazolo[3,4-d]pyrimidin-4-one]	0.026 µM	0.41 µM
CCn1cc2c(Cl)c(-c3n[nH]c4nc(N5[C@H]6CC[C@@H]5[C@H](N)C6)n(C)c(=O)c34)ccc2n1 [Example 112, 6-((1R,2R,4S)-2-amino-7-azabicyclo[2.2.1]heptan-7-yl)-3-(4-chloro-2-ethyl-2H-indazol-5-yl)-5-methyl-1,5-dihydro-4H-pyrazolo[3,4-d]pyrimidin-4-one]	0.013 µM	0.26 µM
Cc1nc2ccc(-c3n[nH]c4nc(N5[C@H]6CC[C@@H]5[C@H](N)C6)n(C)c(=O)c34)c(Cl)c2s1 [Example 113, 6-((1R,2R,4S)-2-amino-7-azabicyclo[2.2.1]heptan-7-yl)-3-(7-chloro-2-methylbenzo[d]thiazol-6-yl)-5-methyl-1,5-dihydro-4H-pyrazolo[3,4-d]pyrimidin-4-one]	0.0045 µM	0.078 µM
Cn1nc2ccc(-c3n[nH]c4nc(N5[C@H]6CC[C@@H]5[C@H](N)C6)n(C)c(=O)c34)c(Cl)c2c1Cl [Example 114, 6-((1R,2R,4S)-2-amino-7-azabicyclo[2.2.1]heptan-7-yl)-3-(3,4-dichloro-2-methyl-2H-indazol-5-yl)-5-methyl-1,5-dihydro-4H-pyrazolo[3,4-d]pyrimidin-4-one]	0.0055 µM	0.073 µM
CCn1cc2c(Cl)c(-c3n[nH]c4nc(N5[C@@H]6CC[C@H]5C[C@@](C)(N)C6)n(C)c(=O)c34)ccc2n1 [Example 115, 6-(endo-3-amino-3-methyl-8-azabicyclo[3.2.1]octan-8-yl)-3-(4-chloro-2-ethyl-2H-indazol-5-yl)-5-methyl-1,5-dihydro-4H-pyrazolo[3,4-d]pyrimidin-4-one]	0.046 µM	0.49 µM
Cn1nc2ccc(-c3n[nH]c4nc(N5C6CCCC5CNC6)n(C)c(=O)c34)c(Cl)c2c1Cl [Example 116, 6-(3,9-diazabicyclo[3.3.1]nonan-9-yl)-3-(3,4-dichloro-2-methyl-2H-indazol-5-yl)-5-methyl-1,5-dihydro-4H-pyrazolo[3,4-d]pyrimidin-4-one]	0.009 µM	0.1 µM
Cn1cc2c(Cl)c(-c3n[nH]c4nc(N5C6CCCC5CNC6)n(C)c(=O)c34)ccc2n1 [Example 117, 6-(3,9-diazabicyclo[3.3.1]nonan-9-yl)-3-(4-chloro-2-methyl-2H-indazol-5-yl)-5-methyl-1,5-dihydro-4H-pyrazolo[3,4-d]pyrimidin-4-one]	0.025 µM	0.64 µM
CCn1cc2c(Cl)c(-c3n[nH]c4nc(N5[C@H]6CC[C@@H]5[C@H](NC)C6)n(C)c(=O)c34)ccc2n1 [Example 118, 3-(4-chloro-2-ethyl-2H-indazol-5-yl)-5-methyl-6-((1R,2R,4S)-2-(methylamino)-7-azabicyclo[2.2.1]heptan-7-yl)-1,5-dihydro-4H-pyrazolo[3,4-d]pyrimidin-4-one]	0.049 µM	1.1 µM
CN[C@@H]1C[C@@H]2CC[C@H]1N2c1nc2[nH]nc(-c3ccc4nn(C)c(Cl)c4c3Cl)c2c(=O)n1C [Example 119, 3-(3,4-dichloro-2-methyl-2H-indazol-5-yl)-5-methyl-6-((1R,2R,4S)-2-(methylamino)-7-azabicyclo[2.2.1]heptan-7-yl)-1,5-dihydro-4H-pyrazolo[3,4-d]pyrimidin-4-one]	0.017 µM	0.29 µM
CN[C@@H]1C[C@@H]2CC[C@H]1N2c1nc2[nH]nc(-c3ccc4nn(C)cc4c3Cl)c2c(=O)n1C [Example 120, 3-(4-chloro-2-methyl-2H-indazol-5-yl)-5-methyl-6-((1R,2R,4S)-2-(methylamino)-7-azabicyclo[2.2.1]heptan-7-yl)-1,5-dihydro-4H-pyrazolo[3,4-d]pyrimidin-4-one]	0.029 µM	0.55 µM
CN[C@@H]1C[C@@H]2CC[C@H]1N2c1nc2[nH]nc(-c3ccc4nn(C)c(Cl)c4c3F)c2c(=O)n1C [Example 121, 3-(3-chloro-4-fluoro-2-methyl-2H-indazol-5-yl)-5-methyl-6-((1R,2R,4S)-2-(methylamino)-7-azabicyclo[2.2.1]heptan-7-yl)-1,5-dihydro-4H-pyrazolo[3,4-d]pyrimidin-4-one]	0.016 µM	0.21 µM
Cn1c(N2C3CCCC2CNC3)nc2[nH]nc(-c3ccc4ncsc4c3Cl)c2c1=O [Example 122, 6-(3,9-diazabicyclo[3.3.1]nonan-9-yl)-3-(7-chlorobenzo[d]thiazol-6-yl)-5-methyl-1,5-dihydro-4H-pyrazolo[3,4-d]pyrimidin-4-one]	0.008 µM	0.14 µM
CN[C@@H]1C[C@@H]2CC[C@H]1N2c1nc2[nH]nc(-c3ccc4ncsc4c3Cl)c2c(=O)n1C [Example 123, 3-(7-chlorobenzo[d]thiazol-6-yl)-5-methyl-6-((1R,2R,4S)-2-(methylamino)-7-azabicyclo[2.2.1]heptan-7-yl)-1,5-dihydro-4H-pyrazolo[3,4-d]pyrimidin-4-one]	0.018 µM	0.17 µM
CN[C@@H]1C[C@@H]2CC[C@H]1N2c1nc2[nH]nc(-c3ccc4nc(C)sc4c3Cl)c2c(=O)n1C [Example 124, 3-(7-chloro-2-methylbenzo[d]thiazol-6-yl)-5-methyl-6-((1R,2R,4S)-2-(methylamino)-7-azabicyclo[2.2.1]heptan-7-yl)-1,5-dihydro-4H-pyrazolo[3,4-d]pyrimidin-4-one]	0.019 µM	0.43 µM
CCn1nc2ccc(-c3n[nH]c4nc(N5[C@H]6CC[C@@H]5[C@H](N)C6)n(C)c(=O)c34)c(Cl)c2c1Cl [Example 127, 6-((1R,2R,4S)-2-amino-7-azabicyclo[2.2.1]heptan-7-yl)-3-(3,4-dichloro-2-ethyl-2H-indazol-5-yl)-5-methyl-1,5-dihydro-4H-pyrazolo[3,4-d]pyrimidin-4-one]	0.0037 µM	0.063 µM
